“Also recorded” adds a separate entry of the source. Where two headings read alike, the source gives them in different places. Non-standard residues stand in square brackets, D forms with d. Residues, ends and D or L forms follow the SMILES beside them. *: point of attachment. Fmoc = O=C(OCC1c2ccccc2-c2ccccc21)*; AMC = Cc1cc(=O)oc2cc(N*)ccc12; Cha = N[CH](CC1CCCCC1)C(=O)O
Legend:
galanin binding sites = assay: autoradiographic [125I]-galanin binding assay on rat spinal cord sections; settings: rat spinal cord sections L4, L5; galnon at 1, 3 and 5 μM
Protocol: Rats were decapitated, the spinal cord lumbar segments L4 and L5 were dissected out, rapidly frozen, cut in a cryostat and processed for the autoradiographic ligand binding assay of Young and Kuhar^13, as described previously^14. Galnon was added at 1, 3 and 5 μM concentration. The sections were processed in a BAS3000 Bio-Imagine Analyzer (Fuji) and quantified and then exposed to Hyperfilm-Max X-ray film (Arnersham Pharmacia Biotech).

galanin receptors = assay: [125I]-galanin displacement, equilibrium binding in rat ventral hippocampal membranes; settings: membranes from rat ventral hippocampus
Protocol: (§1) The mixtures of ligands and individual compounds were screened to displace [^125I]-galanin in equilibrium binding assay using membrane preparations from rat hippocampi, rich in galanin binding sites as described in detail previously^11. Effect of galnon on basal and forskolin-stimulated cAMP production were performed essentially as described by Valkna et al.^12 in membranes from rat ventral hippocampi.

[1] = test system: self sustaining status epilepticus; assay: self sustaining status epilepticus (SSSE) induced by PPS in rats; format: in vivo
Protocol: The effects of intrahippocampal galnon administration was evaluated in rats. SSSE consisted of recurrent limbic seizures of varying intensity (stages 1-5), which lasted for 12-18 h after PPS was discontinued. Behavioral seizures were accompanied by high-frequency (13+Hz) and amplitude (1+mV) discharges with the duration of individual events between 30 s and 3 min. Between the seizures, ictal spikes with the amplitude of 0.8 mV and more and frequency of 3 Hz and less were continuously generated (spike frequency of 3 Hz and more was recognized as a seizure)^5.

adenylate cyclase = adenylate cyclase assay (basal and forskolin-stimulated cAMP production) in membranes from rat ventral hippocampi; format: biochemical
Protocol: as §1

PTZ-induced seizures = PTZ-induced seizures in mice
Protocol: The experiments were performed on C57B1 male mice (weight 20-30 g). Animals to be treated with galanin, or M35 were anaesthetized with ketamine (100 mg/kg i.p.) and xylazine (15 mg/kg i.p.) and stereotaxically implanted i.c.v. with guide cannulae (0.6 mm internal diameter). Postoperative recovery was 3-5 days. Galanin, or M35 were injected into the lateral brain ventricle of freely moving mice by means of Hamilton microsyringe in the amount 0.5 nmol, in 0.5 μl, at a rate […]. Control animals were treated with saline.
Galnon was dissolved in the 50% DMSO in saline and administered i.p. in a dose of 2 mg/kg […] prior to PTZ injection (when the effect of galnon alone was studied) or […] after M35 injection (in co-administration studies). Control animals were treated with 50% DM50 in saline.
Seizures were induced by i.p. injection of PTZ (Research Biochemicals, Natick, Massachusetts) in a dose of 40 mg/kg (when studying the effects of galanin only, or galnon only) or 30 mg/kg (when studying the effect of M35 and galnon+M35). The animals were placed in individual Plexiglas cages and videotaped for 15 min after PTZ administration. Seizures were analyzed off-line by a unbiased investigator and quantified using the following scale: 0: no motor seizures; 1: staring, mouth, or facial movements; 2: head nodding or isolated twitches; 3: unilateral bilateral forelimb clonus; 4: rearing; 5: rearing and falling; 6: tonic extension of hind limbs or death. The latency of each behavioral seizure type and the highest seizure score were recorded. […] Statistical methods used: t-test (latency) and Mann-Whitney (seizure score).

human GalR1 = target: T1, human GalR1 (Homo sapiens, UniProt P47211); settings: antagonists, literature reports; cited from earlier work
T1 sequence (P47211 1-349): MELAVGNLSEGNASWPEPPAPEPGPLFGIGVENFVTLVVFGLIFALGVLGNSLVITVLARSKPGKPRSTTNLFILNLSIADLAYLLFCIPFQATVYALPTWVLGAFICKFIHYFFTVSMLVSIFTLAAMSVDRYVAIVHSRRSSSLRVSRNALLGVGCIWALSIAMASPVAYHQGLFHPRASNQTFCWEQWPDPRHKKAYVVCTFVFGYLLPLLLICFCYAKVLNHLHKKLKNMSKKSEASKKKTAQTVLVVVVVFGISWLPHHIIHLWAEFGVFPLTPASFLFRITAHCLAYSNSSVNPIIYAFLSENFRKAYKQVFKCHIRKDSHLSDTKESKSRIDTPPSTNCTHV

[2] = equimolar galnon into hippocampus before M35 5 nmol, 7 min PPS
[3] = galnon 1 nmol, control rats injected with scrambled PNA

Molecule	displacement of [125I]-galanin, autoradiographic signal (galanin binding sites)	Ki (galanin receptors) [µM]	anticonvulsant effect in the presence of GalR antagonist M35 ([1]; M35 0.5 nmol pretreatment)	duration of SSSE [1, 2] [min]	total seizure time [1, 2] [min]	effect on self-sustaining seizures ([1]; galnon 1 nmol, PNA1-pretreated animals (GalR1 down-regulated))	reduction of duration of SSSE [1, 3] [fold]	reduction of total seizure time [1, 3] [fold]	effect on SSSE ([1]; intrahippocampal injection 10 min after the end of PPS)	SSSE duration ([1]; intrahippocampal, maximal dose 5 nmol, 30 min PPS) [min]	EC50 (adenylate cyclase; basal, read-out: EC50, M of inhibition of adenylate cyclase activity (basal)) [µM]	EC50 (adenylate cyclase; forskolin stimulated, read-out: EC50, M of inhibition of adenylate cyclase activity (forskolin stimulated)) [µM]	effect on seizure-facilitating effect of M35 (PTZ-induced seizures; M35 i.c.v. co-administered with galnon i.p., PTZ 30 mg/kg)	maximal seizure score (PTZ-induced seizures; PTZ 40 mg/kg i.p., 2 mg/kg i.p. 15 min prior to PTZ, scale 0-6)	anticonvulsant effect compared with galanin i.c.v. 0.5 nmol (PTZ-induced seizures; PTZ 40 mg/kg, galnon 2 mg/kg i.p.)	behavioral side effects (PTZ-induced seizures; mice, galnon 2 mg/kg i.p.)	IC50 (human GalR1) [µM]
Cc1cc(=O)oc2cc(NC(=O)C(CCCCN)NC(=O)C(CC3CCCCC3)NC(=O)OCC3c4ccccc4-c4ccccc43)ccc12 (stereo not drawn) [galnon, 1-[5-amino-1-(4-methyl-2-oxo-2H-chromen-7-ylcarbamoyl)-pentylcarbamoyl]-2-cyclohexyl-ethyl-carbamic acid 9H-fluoren-9-ylmethyl ester] (Fmoc-[Cha]-Lys-{AMC}; configuration not given here)	significant increase in binding as compared to controls was only seen at the concentration of 5 μM	4.8	attenuated; also recorded: abolished	37 ± 8	13 ± 4	no effect	7	9	attenuated SSSE in a dose dependent manner	28 ± 8	8	10	completely abolished	1.45	comparable to that of galanin	No obvious behavioral side effects	
COC(=O)C1=C[C@@H](O)[C@@H](O)[C@H](O)[C@@H]1Oc1c(Cl)c(C)c(Cl)c2c1C(=O)[C@@]1(O2)C(OC)=CC(=O)C=C1C(=O)OC [Sch 202596]																	1.4
dithiipin-1,1,4,4-tetroxide																	0.17
